Literature values as cited in patent US20190290629A1, “NIRAPARIB SUSTAINED AND CONTROLLED RELEASE PHARMACEUTICAL COMPOSITION AND USE THEREOF” (priority 2016, published 2019).
Read-outs that look alike come from different tables or passages of the source.

Assays:
[1] = not given; remark: listed apart in the source
ovarian cancer = conditions: orally once daily
[2] = immediate release capsule, clinical studies

## NC(=O)c1cccc2cn(-c3ccc([C@@H]4CCCNC4)cc3)nc12 [niraparib, (S)-2-(4-(piperidin-3-yl)phenyl)-2H-indazole-7-carboxamide]
300 mg/time/day
  steady-state blood concentration peak value: about 4.4 μM
  steady-state blood concentration trough value: ~2.0 µM
  time at which steady-state blood concentration is reached: 12 to 14 days
Immediate release capsule of niraparib tosylate monohydrate, clinical studies
  oral bioavailability: 73%
[2]
  blood concentration peak time: 3 h
  effect of food on plasma exposure: not affected by food
  plasma half-life: more than 30 hours
[1]; clinical
  dose-limiting toxicity: thrombocytopenia and anemia
[1]; clinical studies
  patients who discontinued the treatment due to toxic and side effects: 15%
  patients who reduced dose or stopped taking the drug due to toxic and side effects: 69%
  patients with 3-4 grade anemia: 25%
  patients with grade 3-4 platelet reduction: 29%
  patients with neutropenia: 30%
Ovarian cancer; patients with ovarian cancer of BRCA gene mutation, after first chemotherapy
  median progression free survival time: 21 months
Ovarian cancer; patients without BRCA gene mutations
  median progression free survival time: 9.3 months
